# Measured values taken from article PMC8749431 (mBio, 2022).
# pEC50: −log10 of the molar value.
# What was measured:
# [1] = system: pseudotyped VSVs harboring SARS-CoV S (SARS-Spp); assay: microbe, parasite or virus in culture; type: cell-based; conditions: for pEC50: Severe acute respiratory syndrome coronavirus
# [2] = system: pseudotyped VSVs harboring MERS-CoV S (MERS-Spp); type: cell-based
SMILES,pEC50 [1],pEC50 ([1]; Huh-7),pEC50 ([1]; MA104),inhibition of SARS-Spp entry [1],inhibition of MERS-Spp entry [2]
"CN1CCN([C@@H](c2ccccc2)c2ccc(Cl)cc2)CC1 [(S)-CCZ, (S)-chlorcyclizine]",5.34,5.49,5.16,–,–
"CCN(CC)CCCC(C)Nc1ccnc2cc(Cl)ccc12 (stereo not shown) [Chloroquine, chloroquine]",–,–,–,inhibited,reduced
"CCN1CCN(C(c2ccc(Cl)cc2)c2ccc(Cl)cc2)CC1 [Dichlorcyclizine, dichlorcyclizine]",5.24,6.06,5.00,–,–
CCOC(=O)[C@H]1O[C@@H]1C(=O)N[C@@H](CC(C)C)C(=O)NCCC(C)C [E-64d],–,–,–,inhibited,reduced
"Cc1cc(-c2nc(CN3CCC(C(=O)NCCCN4C[C@H](C)C[C@H](C)C4)CC3)co2)ccc1F [Fluoxazolevir, fluoxazolevir]",5.84,5.76,5.19,–,–
